Results published in patent publication US12083094B2, “Cannabinoid composition and methods of treatment using the same” (CANNPAL ANIMAL THERAPEUTICS LIMITED, priority 2018, dated 2024).

Assay: Blood sampling for THC and CBD plasma concentration after single oral dosing
Conditions: for concentration at 0 h / concentration at 1 h / concentration at 1.5 h / concentration at 2 h / concentration at 3 h / concentration at 4 h / concentration at 12 h / concentration at 16 h / concentration at 24 h / concentration at 72 h / concentration at 0.67 h / concentration at 6 h / concentration at 8 h / concentration at 32 h / concentration at 48 h: oral, THC level in blood plasma fraction; for AUC: AUC for THC concentration, canine
Protocol: Two compositions, IVP1 and IVP2, were administered in varying amounts in the study.
Dosage volumes were calculated prior to Day 0, to provide the target dosage in mg/kg bodyweight based on actual dog bodyweights and IVP active ingredient composition based on the Certificates of Analysis.
Blood samples of approximately 5 mL were collected at each drug concentration sampling time-point from each animal using 22-gauge needles and 5 mL syringes.
The data points from Table 4 and Table 5 were also plotted and these graphs are set out in FIGS. 1-16.

[1] = dog, plasma, individual dogs 1-4, 0.24 mg/kg THC + 0.12 mg/kg CBD oral once
[2] = dog, plasma, individual dogs 5-8, 0.12 mg/kg THC + 0.24 mg/kg CBD oral once
[3] = dog, plasma, mean of dogs 1-4, 0.24 mg/kg THC + 0.12 mg/kg CBD oral once
[4] = dog, plasma, mean of dogs 5-8, 0.12 mg/kg THC + 0.24 mg/kg CBD oral once

SMILES: CCCCCc1cc(O)c2c(c1)OC(C)(C)[C@@H]1CCC(C)=C[C@@H]21 [THC, Δ^9-Tetrahydrocannabinol]
- THC in the subject's blood (72 h after administration): detectable
- concentration at 0 h [1]: 0 ng/mL
- concentration at 1 h [1]: 45.2 ng/mL
- concentration at 1.5 h [1]: 30.1 ng/mL
- concentration at 2 h [1]: 25.6 ng/mL
- concentration at 0 h [2]: 0 ng/mL
- concentration at 2 h [2]: 22.3 ng/mL
- concentration at 3 h [2]: 8.19 ng/mL
- concentration at 4 h [2]: 4.19 ng/mL
- concentration at 12 h [2]: 0.56 ng/mL
- concentration at 16 h [2]: 0.34 ng/mL
- concentration at 24 h [2]: 0.23 ng/mL
- concentration at 72 h [2]: 0 ng/mL
- concentration at 0 h [3]: 0 ng/mL
- concentration at 0.67 h [3]: 39 ng/mL
- concentration at 1 h [3]: 40.7 ng/mL
- concentration at 1.5 h [3]: 32.6 ng/mL
- concentration at 2 h [3]: 26.1 ng/mL
- concentration at 3 h [3]: 15.8 ng/mL
- concentration at 4 h [3]: 10.1 ng/mL
- concentration at 6 h [3]: 6.33 ng/mL
- concentration at 8 h [3]: 3.98 ng/mL
- concentration at 12 h [3]: 1.36 ng/mL
- concentration at 16 h [3]: 0.75 ng/mL
- concentration at 24 h [3]: 0.41 ng/mL
- concentration at 32 h [3]: 0.43 ng/mL
- concentration at 48 h [3]: 0.24 ng/mL
- concentration at 72 h [3]: 0.16 ng/mL
- concentration at 0 h [4]: 0 ng/mL
- concentration at 0.67 h [4]: 27.9 ng/mL
- concentration at 1 h [4]: 36.8 ng/mL
- concentration at 1.5 h [4]: 27.7 ng/mL
- concentration at 2 h [4]: 18 ng/mL
- concentration at 3 h [4]: 7.84 ng/mL
- concentration at 4 h [4]: 4.29 ng/mL
- concentration at 6 h [4]: 3 ng/mL
- concentration at 8 h [4]: 2.38 ng/mL
- concentration at 12 h [4]: 0.65 ng/mL
- concentration at 16 h [4]: 0.44 ng/mL
- concentration at 24 h [4]: 0.28 ng/mL
- concentration at 32 h [4]: 0.28 ng/mL
- concentration at 48 h [4]: 0.09 ng/mL
- concentration at 72 h [4]: 0 ng/mL
- AUC(0-inf) (dog, plasma, po): 0.6 ng·h/mL
- Cmax (dog, plasma, po): 19 to 71.3 ng/mL
- half-life (dog, plasma, po): 18.4 h
- AUC (dog, plasma, po, 0.12 mg/kg, 0.12 mg/kg THC in combination with 0.24 mg/kg CBD): 90 to 110 ng·h/mL
- AUC (dog, plasma, po, 0.24 mg/kg, 0.24 mg/kg THC in combination with 0.12 mg/kg CBD): 145 to 170 ng·h/mL
